# Data: patent US20220280661A1, “GLUCOCORTICOID RECEPTOR RADIOLIGANDS AND METHODS FOR THEIR PREPARATION AND USE” (The Regents of the University of California, priority 2019, published 2022)
# Molecular target: T1, GR (Mus musculus, UniProt P06537)
# T1 construct: from tissue; host or cells: tissues of C57BL6/J mice (intact or adrenalectomized), in vivo
# T1 sequence (P06537 1-792): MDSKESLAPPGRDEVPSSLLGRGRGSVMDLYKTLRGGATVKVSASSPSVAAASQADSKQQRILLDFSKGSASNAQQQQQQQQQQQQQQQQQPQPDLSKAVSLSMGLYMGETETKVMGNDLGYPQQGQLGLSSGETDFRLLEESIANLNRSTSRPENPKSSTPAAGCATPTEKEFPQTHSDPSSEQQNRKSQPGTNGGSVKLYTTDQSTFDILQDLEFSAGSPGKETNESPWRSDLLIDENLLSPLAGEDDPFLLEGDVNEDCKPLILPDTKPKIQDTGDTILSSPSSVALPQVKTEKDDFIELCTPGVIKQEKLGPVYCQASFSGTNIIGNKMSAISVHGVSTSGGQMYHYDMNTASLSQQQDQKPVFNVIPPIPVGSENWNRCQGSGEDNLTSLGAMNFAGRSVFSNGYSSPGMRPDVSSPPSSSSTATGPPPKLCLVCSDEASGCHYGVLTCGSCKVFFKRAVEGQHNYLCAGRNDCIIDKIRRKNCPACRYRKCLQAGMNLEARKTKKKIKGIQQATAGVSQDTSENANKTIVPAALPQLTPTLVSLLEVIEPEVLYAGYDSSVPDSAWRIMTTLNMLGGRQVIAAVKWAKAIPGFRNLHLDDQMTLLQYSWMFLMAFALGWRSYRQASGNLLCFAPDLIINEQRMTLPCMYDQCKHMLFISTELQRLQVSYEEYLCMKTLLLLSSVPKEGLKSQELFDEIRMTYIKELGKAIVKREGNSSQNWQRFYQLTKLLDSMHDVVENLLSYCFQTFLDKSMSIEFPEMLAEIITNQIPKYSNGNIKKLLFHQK
# Experiment: [18F]-YJH08 biodistribution, dexamethasone treatment study
# Assay type: in vivo
# Settings: 20 min after injection
# Experimental: All animal experiments were conducted under the approval from Institutional Animal Care and Use Committee (IACUC) at UCSF. Male nu nu or C57BL6/J mice (4-6 weeks) purchased from Charles River. All the mice were well-housed in the USCF with free access to food and water. […] The mice were treated once daily for three days. At day 3, the mice received the radiotracer after the final gavage. Adrenalectomized mice were purchased from Charles River, and provided drinking water supplemented with NaCl (aq) per instructions.
# For a broader survey of radiotracer biodistribution post mortem, mice were euthanized after radiotracer injection with CO2(g) asphyxiation and dissected at dedicated time points post injection. The blood and tissues were removed, washed, dried and weighed. The activity of each tissue was measured with a gamma counter. All data was decay corrected. PRISM software was used to express a percentage (% ID/g) of the injected dose per gram of tissue. […] The data are represented as mean standard deviation of the % ID/g. […]
# The data are presented as a mean±standard deviation of the % ID/g. […] The P value indicates the result of an unpaired, two-tailed Student's t test.
# [1] = mice given dexamethasone 100 mg/kg oral gavage once daily for three days
# [2] = mice given vehicle by oral gavage once daily for three days
compound,measurement,setting,value
"COc1cccc2c1-c1ccc3c(c1C(Cc1ccc([18F])cc1)O2)C(C)=CC(C)(C)N3 (racemic) [[18F]-YJH08, [^18F]-5-(4-fluorobenzyl)-10-methoxy-2,2,4-trimethyl-2,5-dihydro-1H-chromeno[3,4-f]quinoline]","radiotracer uptake, Adrenal Gland",[1],10.40 ± 0.7 % ID/g
same,"radiotracer uptake, Blood",[1],2.95 ± 0.2 % ID/g
same,"radiotracer uptake, Bone",[1],1.25 ± 0.2 % ID/g
same,"radiotracer uptake, Brain",[1],1.31 ± 0.07 % ID/g
same,"radiotracer uptake, Heart",[1],7.57 ± 0.9 % ID/g
same,"radiotracer uptake, Kidney",[1],3.75 ± 0.5 % ID/g
same,"radiotracer uptake, Large intestine",[1],1.77 ± 0.5 % ID/g
same,"radiotracer uptake, Liver",[1],11.43 ± 2.1 % ID/g
same,"radiotracer uptake, Lung",[1],3.92 ± 0.3 % ID/g
same,"radiotracer uptake, Muscle",[1],1.71 ± 0.1 % ID/g
same,"radiotracer uptake, Pancreas",[1],3.33 ± 0.1 % ID/g
same,"radiotracer uptake, Small intestine",[1],34.43 ± 7.2 % ID/g
same,"radiotracer uptake, Spleen",[1],4.23 ± 0.3 % ID/g
same,"radiotracer uptake, Stomach",[1],0.48 ± 0.4 % ID/g
same,"radiotracer uptake, Supraspinal BAT",[1],4.69 ± 0.7 % ID/g
same,"radiotracer uptake, Adrenal Gland",[2],17.29 ± 6.7 % ID/g
same,"radiotracer uptake, Blood",[2],3.98 ± 0.08 % ID/g
same,"radiotracer uptake, Bone",[2],2.17 ± 0.2 % ID/g
same,"radiotracer uptake, Brain",[2],2.05 ± 0.03 % ID/g
same,"radiotracer uptake, Heart",[2],10.66 ± 0.4 % ID/g
same,"radiotracer uptake, Kidney",[2],8.49 ± 1.3 % ID/g
same,"radiotracer uptake, Large intestine",[2],1.57 ± 0.4 % ID/g
same,"radiotracer uptake, Liver",[2],18.46 ± 2.9 % ID/g
same,"radiotracer uptake, Lung",[2],6.26 ± 0.4 % ID/g
same,"radiotracer uptake, Muscle",[2],2.46 ± 0.2 % ID/g
same,"radiotracer uptake, Pancreas",[2],6.22 ± 1.6 % ID/g
same,"radiotracer uptake, Small intestine",[2],19.12 ± 5.7 % ID/g
same,"radiotracer uptake, Spleen",[2],3.79 ± 0.4 % ID/g
same,"radiotracer uptake, Stomach",[2],1.74 ± 0.8 % ID/g
same,"radiotracer uptake, Supraspinal BAT",[2],10.52 ± 2.9 % ID/g
